Assay results reported in ChEMBL document CHEMBL3603831, “Discovery of Potent 17β-Hydroxywithanolides for Castration-Resistant Prostate Cancer by High-Throughput Screening of a Natural Products Library for Androgen-Induced Gene Expression Inhibitors” (J Med Chem, 2015).
Active and inactive are the calls of the source. The rule behind the calls is not given here.

Legend:
PC-3 [1] = assay: Cytotoxicity against human PC3 cells assessed as inhibition of cell proliferation/survival after 72 hrs by resazurin dye reduction assay; format: functional, cell-based; details: PC-3, 72 h
MCF7 = assay: Cytotoxicity against human MCF7 cells assessed as inhibition of cell proliferation/survival after 72 hrs by resazurin dye reduction assay; format: functional, cell-based; details: MCF7, 72 h
NCI-H460 = assay: Cytotoxicity against human NCI-H460 cells assessed as inhibition of cell proliferation/survival after 72 hrs by resazurin dye reduction assay; format: functional, cell-based; details: NCI-H460, 72 h
SF-268 = assay: Cytotoxicity against human SF268 cells assessed as inhibition of cell proliferation/survival after 72 hrs by resazurin dye reduction assay; format: functional, cell-based; details: SF-268, 72 h
HFF = assay: Cytotoxicity against HFF assessed as inhibition of cell proliferation/survival after 72 hrs by resazurin dye reduction assay; format: cell-based; details: Homo sapiens
Androgen receptor [2] = molecular target: T1, Androgen receptor (Homo sapiens, UniProt P10275); assay: Inhibition of androgen receptor in human LNCAP cells assessed as inhibition of DHT-induced KLK2 gene expression by Array Plate assay; format: cell-based
T1 sequence (P10275 whole entry): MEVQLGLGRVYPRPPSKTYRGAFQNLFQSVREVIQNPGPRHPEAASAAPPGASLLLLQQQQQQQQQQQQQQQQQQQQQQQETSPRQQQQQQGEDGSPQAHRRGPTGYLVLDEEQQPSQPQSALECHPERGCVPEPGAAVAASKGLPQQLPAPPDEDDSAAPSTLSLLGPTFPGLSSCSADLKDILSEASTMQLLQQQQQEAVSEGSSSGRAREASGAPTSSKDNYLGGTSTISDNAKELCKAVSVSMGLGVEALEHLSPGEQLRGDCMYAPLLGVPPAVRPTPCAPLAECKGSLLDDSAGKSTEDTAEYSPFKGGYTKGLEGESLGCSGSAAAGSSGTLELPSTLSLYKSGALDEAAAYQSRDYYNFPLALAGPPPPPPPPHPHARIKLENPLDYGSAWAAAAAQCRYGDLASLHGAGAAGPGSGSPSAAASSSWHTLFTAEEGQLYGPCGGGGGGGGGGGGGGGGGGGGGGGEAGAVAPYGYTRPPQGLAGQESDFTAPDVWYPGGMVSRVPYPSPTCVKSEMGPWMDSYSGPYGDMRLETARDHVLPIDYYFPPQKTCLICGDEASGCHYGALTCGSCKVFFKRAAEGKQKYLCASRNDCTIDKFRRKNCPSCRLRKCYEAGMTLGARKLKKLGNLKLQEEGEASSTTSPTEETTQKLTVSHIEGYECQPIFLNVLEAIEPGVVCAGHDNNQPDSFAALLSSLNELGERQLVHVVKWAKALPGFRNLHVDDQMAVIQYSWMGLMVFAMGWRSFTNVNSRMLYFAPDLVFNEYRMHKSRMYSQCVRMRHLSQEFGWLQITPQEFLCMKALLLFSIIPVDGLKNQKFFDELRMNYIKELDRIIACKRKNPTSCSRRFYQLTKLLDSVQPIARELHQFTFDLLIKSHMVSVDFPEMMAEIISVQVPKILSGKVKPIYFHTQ

Androgen receptor [3] = molecular target: T1, Androgen receptor; assay: Inhibition of androgen receptor in human LNCAP cells assessed as inhibition of DHT-induced KLK3 gene expression by Array Plate assay; format: cell-based
Androgen receptor [4] = molecular target: T1, Androgen receptor; assay: Inhibition of androgen receptor in human LNCAP cells assessed as inhibition of DHT-induced SPDEF gene expression by Array Plate assay; format: cell-based
LNCaP [5] = assay: Cytotoxicity against human LNCAP cells assessed as inhibition of cell proliferation/survival after 72 hrs by resazurin dye reduction assay; format: functional, cell-based
Plasma [6] = assay: Drug uptake in SCID mouse plasma at 50 mg/kg, ip; format: ADME, organism-based; details: in vivo
Plasma [7] = assay: Drug uptake in SCID mouse plasma at 50 mg/kg administered through gastric gavage; format: ADME, organism-based; details: in vivo, po
[8] = Tmax in SCID mouse at 50 mg/kg, ip; format: ADME, organism-based; details: in vivo
Serum = assay: Drug uptake in SCID mouse serum at 25 mg/kg, sc administered in trappsol measured after 1 hr; format: ADME, organism-based; details: in vivo
LNCaP [9] = assay: Antitumor activity against human LNCAP cells xenografted in sc dosed SCID mouse assessed as tumor growth inhibition administered in trappsol for five times per week up to two weeks measured twice per week; format: functional, organism-based
Mus musculus [10] = assay: Toxicity in SCID mouse xenografted with human LNCAP cells assessed as mortality at 15 to 25 mg/kg, sc administered in trappsol for five times per week up to two weeks; format: organism-based; details: in vivo
LNCaP [11] = assay: Antitumor activity against human LNCAP cells xenografted in SCID mouse assessed as tumor growth inhibition at 15 to 25 mg/kg, sc coadministered with taxotere in trappsol for five times per week up to two weeks measured twice per week; format: functional, organism-based
PC-3 [12] = assay: Antitumor activity against human PC3 cells xenografted in ip dosed SCID mouse assessed as tumor growth inhibition for five times per week up to two weeks measured twice per week; format: functional, organism-based
Mus musculus [13] = assay: Toxicity in SCID mouse xenografted with human PC3 cells assessed as mortality at 26 to 40 mg/kg, ip for five times per week up to two weeks; format: organism-based, PC-3; details: in vivo
PC-3 [14] = assay: Antitumor activity against human PC3 cells xenografted in SCID mouse assessed as tumor growth inhibition at 26 to 40 mg/kg, ip coadministered with taxotere for five times per week up to two weeks measured twice per week; format: functional, organism-based
[15] = Toxicity in sc dosed SCID mouse administered in trappsol once per day for 5 days followed by 2 days of rest and again dose repetition; format: organism-based; details: in vivo
PC-3 [16] = assay: Antitumor activity against human PC3 cells xenografted in SCID mouse assessed as tumor growth inhibition at 12 mg/kg, iv administered for five times per week up to two weeks measured twice per week; format: functional, organism-based
[17] = molecular target: T2, Androgen receptor (Homo sapiens) (UniProt P10275); assay: Competitive inhibition of androgen binding to androgen receptor (unknown origin) by invitrogen polar screen assay
T2 sequence (whole entry): T1 sequence (P10275 whole entry)

[18] = Toxicity in SCID mouse assessed as change in body weight measured every 3 to 5 days up to 18 days; format: organism-based; details: in vivo
PC-3 [19] = assay: Antitumor activity against human PC3 cells xenografted in SCID mouse assessed as tumor growth inhibition at 50 mg/kg, ip qd administered for 5 days followed by 2 days rest and again dose repetition up to 30 days measured after day 30 post dose relative to vehicle-treated control; format: functional; details: PC-3, ip, read-out: TGI

Row | IC50 (Androgen receptor [2]) [nM] | IC50 (Androgen receptor [3]) [nM] | IC50 (Androgen receptor [4]) [nM] | SMILES | IC50 (PC-3 [1]) [nM] | IC50 (MCF7) [nM] | IC50 (NCI-H460) [nM] | IC50 (SF-268) [nM] | IC50 (HFF) [nM] | IC50 (LNCaP [5]) [nM] | other results
1 | 620 | 1420 | 1200 | CC(=O)OC[C@]12CC[C@H]3[C@@H](CC=C4C=CCC(=O)[C@@]43C)[C@]1(O)[C@@H](OC(C)=O)C[C@@]2(O)[C@@](C)(O)[C@H]1CC(C)=C(C)C(=O)O1 | > 5000 | > 5000 | > 5000 | > 5000 | > 5000 | 2000 | –
2 | 1790 | 3580 | 2720 | CC(=O)OC[C@]12CC[C@H]3[C@@H](CC=C4CC=CC(=O)[C@@]43C)[C@]1(O)[C@@H](OC(C)=O)C[C@@]2(O)[C@@](C)(O)[C@H]1CC(C)=C(C)C(=O)O1 | 2000 | > 5000 | 2000 | > 5000 | > 2800 | 440 | –
3 | – | – | – | CC(=O)OC[C@]12CC[C@H]3[C@@H](C[C@H]4O[C@]45CC=CC(=O)[C@]35C)[C@]1(O)CC[C@@]2(O)[C@@](C)(O)[C@H]1CC(C)=C(C)C(=O)O1 | 90 | 210 | 800 | 2600 | > 3100 | 20 | Drug uptake (Plasma [6]): Active; Drug uptake (Plasma [7]): Not Active; Tmax [8]: 15 min; Drug uptake (Serum): Active; TGI (LNCaP [9]): Dose-dependent effect; Activity (Mus musculus [10]): Non-toxic; TGI (LNCaP [11]): Active; TGI (PC-3 [12]): Dose-dependent effect; Activity (Mus musculus [13]): Non-toxic; TGI (PC-3 [14]): Active; MTD [15]: 25 mg/kg
4 | 2400 | 3520 | 3280 | CC(=O)OC[C@]12CC[C@H]3[C@@H](CC=C4C=CCC(=O)[C@@]43C)[C@]1(O)CC[C@@]2(O)[C@@](C)(O)[C@H]1CC(C)=C(C)C(=O)O1 | 3100 | > 5000 | 3900 | > 5000 | > 3100 | 1100 | –
5 | – | – | – | CC(=O)OC[C@]12CC[C@H]3[C@@H](CC=C4CC=CC(=O)[C@@]43C)[C@]1(O)[C@@H](OC(C)=O)C[C@@]2(O)[C@@](C)(O)[C@H]1CC(CO)=C(C)C(=O)O1 | > 5000 | > 5000 | > 5000 | > 5000 | – | 3300 | –
6 | – | – | – | CC(=O)O[C@@]12CO[C@@H]1C[C@H](O)[C@@]1(C)C(=O)[C@H](O)C3=C(C)[C@@H](OC(=O)[C@H](O)[C@@H](NC(=O)OC(C)(C)C)c4ccccc4)C[C@@](O)([C@@H](OC(=O)c4ccccc4)[C@H]21)C3(C)C | – | – | – | – | – | – | TGI (PC-3 [16]): Active
7 | – | – | – | COc1cccc2c1C(=O)c1c(O)c3c(c(O)c1C2=O)C[C@@](O)(C(=O)CO)C[C@@H]3O[C@H]1C[C@H](N)[C@H](O)[C@H](C)O1 [DOXORUBICIN] | 250 | 320 | – | 450 | – | – | –
8 | – | – | – | CC1=C(CO)C(=O)O[C@@H]([C@@H](C)[C@H]2CC[C@H]3[C@@H]4C[C@H]5O[C@]56[C@@H](O)C=CC(=O)[C@]6(C)[C@H]4CC[C@]23C)C1 [WITHAFERIN A] | 410 | 570 | < 400 | < 400 | > 6800 | 870 | –
9 | – | – | – | CC(=O)OC[C@]12CC[C@H]3[C@@H](C[C@@H]4O[C@@]45CC=CC(=O)[C@]35C)[C@]1(O)CC[C@@]2(O)[C@@](C)(O)[C@H]1CC(C)=C(C)C(=O)O1 | 1200 | 1200 | 2100 | > 5000 | > 12000 | 320 | –

Row | SMILES | IC50 (Androgen receptor [2]) [nM] | IC50 (Androgen receptor [3]) [nM] | IC50 (Androgen receptor [4]) [nM] | IC50 (PC-3 [1]) [nM] | IC50 (MCF7) [nM] | IC50 (NCI-H460) [nM] | IC50 (SF-268) [nM] | IC50 (HFF) [nM] | IC50 (LNCaP [5]) [nM] | other results
10 | CC(=O)OC[C@]12CC[C@H]3[C@@H](CC=C4CC=CC(=O)[C@@]43C)[C@]1(O)CC[C@@]2(O)[C@@](C)(O)[C@H]1CC(C)=C(C)C(=O)O1 | 580 | 750 | 770 | 130 | 1900 | 1200 | 3400 | > 3100 | 70 | inhibition [17]: inactive; MTD at 18 days [18]: 50 mg/kg; inhibition in vivo at 50 mg/kg (PC-3 [19]): 66%
